Test results as given in ChEMBL document CHEMBL4622872, “Discovery of DS-1971a, a Potent, Selective NaV1.7 Inhibitor” (J Med Chem, 2020).
Converted amounts (≈) assume the structure as drawn. Blank lines part the entries; values can stand above or below the compound they belong to.

Experiments:
[1] = Distribution coefficient, log D of the compound in 1-octanol and PBS buffer at pH 7.4 measured after 30 mins by LC-MS analysis; format: physicochemical; conditions: 1-octanol/PBS buffer
[2] = Aqueous thermodynamic solubility of the compound at pH 6.8 measured after 4 hrs by UV-HPLC analysis; format: physicochemical; conditions: buffer
[3] = Stability of the compound in mouse liver microsomes assessed as parent compound remaining measured after 0.5 hrs; format: ADME, Microsome
[4] = Toxicity in Crl:CD1(ICR) mouse assessed as effect on central nervous system by measuring NOEL administered as single dose measured up to 24 hrs by Irwin's test; conditions: in vivo
[5] = Stability of the compound in rat liver microsomes assessed as parent compound remaining measured after 0.5 hrs; format: ADME, Microsome; conditions: read-out: Stability
[6] = Stability of the compound in dog liver microsomes assessed as parent compound remaining measured after 0.5 hrs; format: ADME, Canis lupus familiaris, Microsome; conditions: read-out: Stability
[7] = Stability of the compound in monkey liver microsomes assessed as parent compound remaining measured after 0.5 hrs; format: ADME, Macaca mulatta, Microsome; conditions: rhesus monkey, read-out: Stability
[8] = Stability of the compound in human liver microsomes assessed as parent compound remaining measured after 0.5 hrs; format: ADME, Microsome; conditions: read-out: Stability
[9] = Cmax in cynomolgus monkey at 1 mg/kg, iv or po by LC-MS/MS analysis; format: ADME, organism-based, Macaca fascicularis; conditions: in vivo
[10] = Tmax in cynomolgus monkey at 1 mg/kg, iv or po by LC-MS/MS analysis; format: ADME, organism-based, Macaca fascicularis; conditions: in vivo
[11] = Half life in cynomolgus monkey at 1 mg/kg, iv or po by LC-MS/MS analysis; format: ADME, organism-based, Macaca fascicularis; conditions: in vivo
[12] = AUC (infinity) in cynomolgus monkey at 1 mg/kg, iv or po by LC-MS/MS analysis; format: ADME, organism-based, Macaca fascicularis; conditions: in vivo
[13] = Oral bioavailability in cynomolgus monkey at 1 mg/kg by LC-MS/MS analysis; format: ADME, organism-based, Macaca fascicularis; conditions: in vivo
[14] = Clearance in cynomolgus monkey at 1 mg/kg, iv by LC-MS/MS analysis; format: ADME, organism-based, Macaca fascicularis; conditions: in vivo
[15] = Volume of distribution at steady state in cynomolgus monkey at 1 mg/kg, iv by LC-MS/MS analysis; format: ADME, organism-based, Macaca fascicularis; conditions: in vivo, read-out: Vdss
[16] = Cmax in Beagle dog at 1 mg/kg, iv or po by LC-MS/MS analysis; format: ADME, organism-based, Canis lupus familiaris; conditions: in vivo
[17] = Tmax in Beagle dog at 1 mg/kg, iv or po by LC-MS/MS analysis; format: ADME, organism-based, Canis lupus familiaris; conditions: in vivo
[18] = Half life in Beagle dog at 1 mg/kg, iv or po by LC-MS/MS analysis; format: ADME, organism-based, Canis lupus familiaris; conditions: in vivo
[19] = AUC (infinity) in Beagle dog at 1 mg/kg, iv or po by LC-MS/MS analysis; format: ADME, organism-based, Canis lupus familiaris; conditions: in vivo
[20] = Oral bioavailability in Beagle dog at 1 mg/kg by LC-MS/MS analysis; format: ADME, organism-based, Canis lupus familiaris; conditions: in vivo
[21] = Clearance in Beagle dog at 1 mg/kg, iv by LC-MS/MS analysis; format: ADME, organism-based, Canis lupus familiaris; conditions: in vivo
[22] = Volume of distribution at steady state in Beagle dog at 1 mg/kg, iv by LC-MS/MS analysis; format: ADME, organism-based, Canis lupus familiaris; conditions: in vivo, read-out: Vdss
[23] = Cmax in Sprague-Dawley rat at 1 mg/kg, iv or po by LC-MS/MS analysis; format: ADME, organism-based; conditions: in vivo
[24] = Tmax in Sprague-Dawley rat at 1 mg/kg, iv or po by LC-MS/MS analysis; format: ADME, organism-based; conditions: in vivo
[25] = Half life in Sprague-Dawley rat at 1 mg/kg, iv or po by LC-MS/MS analysis; format: ADME, organism-based; conditions: in vivo
[26] = AUC (infinity) in Sprague-Dawley rat at 1 mg/kg, iv or po by LC-MS/MS analysis; format: ADME, organism-based; conditions: in vivo
[27] = Oral bioavailability in Sprague-Dawley rat at 1 mg/kg by LC-MS/MS analysis; format: ADME, organism-based; conditions: in vivo
[28] = Clearance in Sprague-Dawley rat at 1 mg/kg, iv by LC-MS/MS analysis; format: ADME, organism-based; conditions: in vivo
[29] = Volume of distribution at steady state in Sprague-Dawley rat at 1 mg/kg, iv by LC-MS/MS analysis; format: ADME, organism-based; conditions: in vivo, read-out: Vdss
[30] = Cmax in ddy mouse at 1 mg/kg, iv or po by LC-MS/MS analysis; format: ADME, organism-based; conditions: in vivo
[31] = Tmax in ddy mouse at 1 mg/kg, iv or po by LC-MS/MS analysis; format: ADME, organism-based; conditions: in vivo
[32] = Half life in ddy mouse at 1 mg/kg, iv or po by LC-MS/MS analysis; format: ADME, organism-based; conditions: in vivo
[33] = AUC (infinity) in ddy mouse at 1 mg/kg, iv or po by LC-MS/MS analysis; format: ADME, organism-based; conditions: in vivo
[34] = Oral bioavailability in ddy mouse at 1 mg/kg by LC-MS/MS analysis; format: ADME, organism-based; conditions: in vivo
[35] = Clearance in ddy mouse at 1 mg/kg, iv by LC-MS/MS analysis; format: ADME, organism-based; conditions: in vivo
[36] = Volume of distribution at steady state in ddy mouse at 1 mg/kg, iv by LC-MS/MS analysis; format: ADME, organism-based; conditions: in vivo, read-out: Vdss
[37] = Cmax in ddy mouse at 3 mg/kg, iv or po by LC-MS/MS analysis; format: ADME, organism-based; conditions: in vivo
[38] = Tmax in ddy mouse at 3 mg/kg, iv or po by LC-MS/MS analysis; format: ADME, organism-based; conditions: in vivo
[39] = Half life in ddy mouse at 3 mg/kg, iv or po by LC-MS/MS analysis; format: ADME, organism-based; conditions: in vivo
[40] = AUC (infinity) in ddy mouse at 3 mg/kg, iv or po by LC-MS/MS analysis; format: ADME, organism-based; conditions: in vivo
[41] = Oral bioavailability in ddy mouse at 3 mg/kg by LC-MS/MS analysis; format: ADME, organism-based; conditions: in vivo
[42] = Clearance in ddy mouse at 3 mg/kg, iv by LC-MS/MS analysis; format: ADME, organism-based; conditions: in vivo
[43] = Volume of distribution at steady state in ddy mouse at 3 mg/kg, iv by LC-MS/MS analysis; format: ADME, organism-based; conditions: in vivo, read-out: Vdss
[44] = Toxicity in Crl:CD1(ICR) mouse assessed as effect on spontaneous locomotor activity by measuring NOEL administered as single dose measured at 10 mins interval starting from 2 to 3 hrs; conditions: in vivo
[45] = Toxicity in Crl:CD1(ICR) mouse assessed as effect on motor coordination by measuring NOEL administered as single dose measured after 0.5 to 2 hrs by rotarod test; conditions: in vivo
[46] = Toxicity in Crl:CD1(ICR) mouse assessed as effect on respiratory system by measuring NOEL administered as single dose measured after 0.5 to 24 hrs by WBP method; conditions: in vivo
[47] = Toxicity in cynomolgus monkey assessed as effect on cardiovascular system by measuring NOEL administered as single dose measured after 1 to 24 hrs by telemetry; set-up: species or system Macaca fascicularis; conditions: in vivo
[48] = Chronic toxicity in male Crl:CD1(ICR) mouse assessed as NOAEL administered for 6 months; conditions: in vivo
[49] = Chronic toxicity in female Crl:CD1(ICR) mouse assessed as NOAEL administered for 6 months; conditions: in vivo
[50] = Chronic toxicity in male cynomolgus monkey assessed as NOAEL administered for 9 months; set-up: species or system Macaca fascicularis; conditions: in vivo
[51] = Chronic toxicity in female cynomolgus monkey assessed as NOAEL administered for 9 months; set-up: species or system Macaca fascicularis; conditions: in vivo
[52] = Cmax in male Crl:CD1(ICR) mouse at 1000 mg/kg administered for 6 months measured 24 hrs post last dose; format: ADME, organism-based; set-up: dose 1000 mg/kg; conditions: in vivo
[53] = Cmax in female Crl:CD1(ICR) mouse at 1000 mg/kg administered for 6 months measured 24 hrs post last dose with 1 month recovery; format: ADME, organism-based; set-up: dose 1000 mg/kg; conditions: in vivo
[54] = Cmax in male cynomolgus monkey at 1000 mg/kg administered for 9 months measured 24 hrs post last dose with 1 month recovery; format: ADME, organism-based, Macaca fascicularis; set-up: dose 1000 mg/kg; conditions: in vivo
[55] = Cmax in female cynomolgus monkey at 1000 mg/kg administered for 9 months measured 24 hrs post last dose with 1 month recovery; format: ADME, organism-based, Macaca fascicularis; set-up: dose 1000 mg/kg; conditions: in vivo
[56] = Tmax in male Crl:CD1(ICR) mouse at 1000 mg/kg administered for 6 months measured 24 hrs post last dose; format: ADME, organism-based; conditions: in vivo
[57] = Tmax in female Crl:CD1(ICR) mouse at 1000 mg/kg administered for 6 months measured 24 hrs post last dose with 1 month recovery; format: ADME, organism-based; conditions: in vivo
[58] = Tmax in male cynomolgus monkey at 1000 mg/kg administered for 9 months measured 24 hrs post last dose with 1 month recovery; format: ADME, organism-based, Macaca fascicularis; conditions: in vivo
[59] = Tmax in female cynomolgus monkey at 1000 mg/kg administered for 9 months measured 24 hrs post last dose with 1 month recovery; format: ADME, organism-based, Macaca fascicularis; conditions: in vivo
[60] = AUC (0 to 24 hrs) in male Crl:CD1(ICR) mouse at 1000 mg/kg administered for 6 months measured 24 hrs post last dose; format: ADME, organism-based; set-up: dose 1000 mg/kg, time < 24 hr; conditions: in vivo
[61] = AUC (0 to 24 hrs) in female Crl:CD1(ICR) mouse at 1000 mg/kg administered for 6 months measured 24 hrs post last dose with 1 month recovery; format: ADME, organism-based; set-up: dose 1000 mg/kg, time < 24 hr; conditions: in vivo
[62] = AUC (0 to 24 hrs) in male cynomolgus monkey at 1000 mg/kg administered for 9 months measured 24 hrs post last dose with 1 month recovery; format: ADME, organism-based, Macaca fascicularis; set-up: time < 24 hr, dose 1000 mg/kg; conditions: in vivo
[63] = AUC (0 to 24 hrs) in female cynomolgus monkey at 1000 mg/kg administered for 9 months measured 24 hrs post last dose with 1 month recovery; format: ADME, organism-based, Macaca fascicularis; set-up: time < 24 hr, dose 1000 mg/kg; conditions: in vivo

logD at 0.5 h [1]: 0.4
solubility thermodynamic at 4 h ([2]; pH 6.8, read-out: Therm_solubility): 550 µM (≈ 240 µg/mL)
remaining at 0.5 h ([3]; mouse liver microsomes, read-out: Stability): 82%
Structure (SMILES): Cn1nccc1[C@H]1CCC[C@@H]1Oc1ccc(S(=O)(=O)Nc2ccncn2)c(F)c1F (racemic)

Therm_solubility ([2]; pH 6.8, 4 h, 4 h): 1500 µM
Stability ([3]; microsomes, 0.5 h): 92%
remaining at 0.5 h [5]: 94%
remaining at 0.5 h [6]: 95%
remaining at 0.5 h [7]: 78%
remaining at 0.5 h [8]: 66%
Cmax [9]: 1570 nM
Tmax [10]: 0.83 h
half-life [11]: 3.69 h
AUC(0-inf) [12]: 2.06 µM·h
bioavailability [13]: 35%
clearance [14]: 6.55 mL/min/kg
Vd [15]: 0.15 L/kg
Cmax [16]: 1710 nM
Tmax [17]: 0.5 h
half-life [18]: 4 h
AUC(0-inf) [19]: 3.23 µM·h
bioavailability [20]: 77%
clearance [21]: 8.7 mL/min/kg
Vd [22]: 0.57 L/kg
Cmax [23]: 103 nM
Tmax [24]: 0.5 h
half-life [25]: 0.77 h
AUC(0-inf) [26]: 0.103 µM·h
bioavailability [27]: 16%
clearance [28]: 47 mL/min/kg
Vd [29]: 1.2 L/kg
Cmax [30]: 105 nM
Tmax [31]: 5 min
half-life [32]: 2.02 h
AUC(0-inf) [33]: 0.0689 µM·h
bioavailability [34]: 15%
clearance [35]: 78.7 mL/min/kg
Vd [36]: 1.37 L/kg
Cmax [37]: 464 nM
Tmax [38]: 0.25 h
half-life [39]: 1.54 h
AUC(0-inf) [40]: 0.277 µM·h
bioavailability [41]: 11%
clearance [42]: 45.3 mL/min/kg
Vd [43]: 0.565 L/kg
Cmax [52]: 9440 nM
Cmax [53]: 105000 nM
Cmax [54]: 28100 nM
Cmax [55]: 22500 nM
Tmax [56]: 0.5 h
Tmax [57]: 6 h
Tmax [58]: 1.2 h
Tmax [59]: 1.2 h
AUC(0-t) at 24 h [60]: 65.9 µM·h
AUC(0-t) at 24 h [61]: 1400 µM·h
AUC(0-t) at 24 h [62]: 146 µM·h
AUC(0-t) at 24 h [63]: 100 µM·h
Structure (SMILES): Cn1nccc1[C@H]1CCCC[C@@H]1Oc1cc(F)c(S(=O)(=O)Nc2ccncn2)cc1Cl [DS-1971]
NOAEL at 24 h [4]: 1000 mg/kg
NOAEL [44]: 1000 mg/kg
NOAEL [45]: 1000 mg/kg
NOAEL [46]: 1000 mg/kg
NOAEL [47]: 1000 mg/kg
NOAEL at 6 months [48]: 1000 mg/kg
NOAEL at 6 months [49]: 1000 mg/kg
NOAEL at 9 months [50]: 1000 mg/kg
NOAEL at 9 months [51]: 1000 mg/kg
